In patent publication US11377442B2, “Small molecule agonists and antagonists of NR2F6 activity” (ZANDER THERAPEUTICS, INC., priority 2016, dated 2022):
Values after ≈ are worked out from the molar mass of the structure shown. Like-named read-outs stand apart in the source and are kept apart here.

Key:
[1] = system: hCyt P450; experiment: CYP inhibition; type: in vitro ADME, human
[2] = target: hCyt P450 (Homo sapiens, UniProt P08684); experiment: CYP inhibition; type: in vitro ADME
[3] = target: T1, hCyt P450 (Homo sapiens, UniProt P10632); experiment: CYP inhibition; type: in vitro ADME; details: CYP 2C8-Amodiaquine
T1 sequence (P10632 1-490): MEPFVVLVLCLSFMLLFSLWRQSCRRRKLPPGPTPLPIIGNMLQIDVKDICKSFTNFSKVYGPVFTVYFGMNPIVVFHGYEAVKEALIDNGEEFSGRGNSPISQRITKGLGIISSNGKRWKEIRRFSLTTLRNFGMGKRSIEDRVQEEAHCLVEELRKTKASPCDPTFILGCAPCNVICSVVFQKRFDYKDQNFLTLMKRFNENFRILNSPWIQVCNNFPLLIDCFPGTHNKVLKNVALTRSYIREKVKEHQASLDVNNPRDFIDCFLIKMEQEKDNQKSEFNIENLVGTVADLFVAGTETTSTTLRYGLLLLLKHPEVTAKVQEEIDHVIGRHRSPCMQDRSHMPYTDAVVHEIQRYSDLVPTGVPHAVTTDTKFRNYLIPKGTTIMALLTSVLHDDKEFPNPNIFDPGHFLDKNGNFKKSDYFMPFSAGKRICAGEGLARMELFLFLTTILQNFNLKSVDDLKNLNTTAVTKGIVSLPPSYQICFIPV

[4] = Stability in human plasma; type: in vitro ADME
[5] = pH stability; type: physicochemical
[6] = target: T2, P-gp (MDR1) (Homo sapiens, UniProt P08183); experiment: Caco-2 asymmetry, P-gp substrate; type: in vitro ADME
T2 construct: endogenous in cells; host or cells: Caco-2
T2 sequence (P08183 whole entry): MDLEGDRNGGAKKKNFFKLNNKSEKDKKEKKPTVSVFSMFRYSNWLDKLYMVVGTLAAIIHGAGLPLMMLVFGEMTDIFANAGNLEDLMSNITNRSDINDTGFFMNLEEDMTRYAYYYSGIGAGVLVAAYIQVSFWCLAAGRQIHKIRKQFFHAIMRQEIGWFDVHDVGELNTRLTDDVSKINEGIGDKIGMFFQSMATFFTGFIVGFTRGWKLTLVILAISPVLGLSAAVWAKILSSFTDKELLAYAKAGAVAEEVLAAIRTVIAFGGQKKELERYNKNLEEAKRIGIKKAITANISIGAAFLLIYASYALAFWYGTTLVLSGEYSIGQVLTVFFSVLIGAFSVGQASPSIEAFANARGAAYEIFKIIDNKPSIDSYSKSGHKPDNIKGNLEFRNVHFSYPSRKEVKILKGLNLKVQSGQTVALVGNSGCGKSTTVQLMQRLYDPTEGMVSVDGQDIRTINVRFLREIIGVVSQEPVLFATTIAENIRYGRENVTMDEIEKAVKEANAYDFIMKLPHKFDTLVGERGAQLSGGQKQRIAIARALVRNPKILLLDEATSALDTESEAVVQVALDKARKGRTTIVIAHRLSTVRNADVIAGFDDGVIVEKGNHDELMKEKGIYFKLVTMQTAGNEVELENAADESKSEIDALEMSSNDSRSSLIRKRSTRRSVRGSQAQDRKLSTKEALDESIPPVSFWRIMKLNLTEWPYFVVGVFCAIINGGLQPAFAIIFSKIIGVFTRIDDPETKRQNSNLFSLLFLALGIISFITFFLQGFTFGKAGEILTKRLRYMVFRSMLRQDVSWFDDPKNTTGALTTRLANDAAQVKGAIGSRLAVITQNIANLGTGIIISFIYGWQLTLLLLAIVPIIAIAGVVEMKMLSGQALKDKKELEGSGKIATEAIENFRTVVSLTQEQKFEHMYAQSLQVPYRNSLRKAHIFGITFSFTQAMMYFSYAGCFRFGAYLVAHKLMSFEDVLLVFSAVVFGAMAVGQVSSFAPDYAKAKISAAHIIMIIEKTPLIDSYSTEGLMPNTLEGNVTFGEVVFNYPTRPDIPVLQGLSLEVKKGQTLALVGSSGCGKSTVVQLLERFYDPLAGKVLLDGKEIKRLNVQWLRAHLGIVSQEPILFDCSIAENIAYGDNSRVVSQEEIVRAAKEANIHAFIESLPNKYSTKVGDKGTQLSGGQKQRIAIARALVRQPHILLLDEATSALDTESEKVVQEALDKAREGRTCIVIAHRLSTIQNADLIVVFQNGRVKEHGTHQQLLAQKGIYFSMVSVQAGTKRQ
Experimental: A Caco-2 permeability assay was performed on Compound D136.

[7] = system: Human PBMC; experiment: Cytokines release by hPBMC (PMA+ionomycin activated); type: cell-based
Experimental: FIGS. 18A and 18B show charts of cytokines release by hPBMC and cytotox for Compound 18. For cytokines release and cytotox on hPBMCs compound was tested at 1.25, 2.5, 5, 10, 25 and 50 uM in duplicates. For cytotox on HEK293, HEK293 pGL4 and HEK293 NR2F6 (full length) compound was tested from 50 uM with dilution step 3.16 in duplicates. Human PBMC were activated by 10 ng/mL PMA+500 ng/mL ionomycin. Data were normalized to controls with (100%) w/o compounds.
FIGS. 16A and 16B show results of cytokins release by hPBMC and cytotox for Compound C11. For cytokines release and cytotox on hPBMCs, the Compound was tested at 1.25, 2.5, 5, 10, 25 and 50 uM in duplicates. For cytotox on HEK293, HEK293 pGL4 and HEK293 NR2F6 (full length) cmpd was tested from 50 uM with dilution step 3.16 in duplicates.
The human PBMC were activated by 10 ng/mL PMA+500 ng/mL ionomycin. Data were normalized to controls with (100%) w/o compounds.
For cytokines release and cytotox on hPBMCs each compound was tested at 1.25, 2.5, 5, 10, 25 and 50 uM in duplicates. Human PBMC were activated by 10 ng/mL PMA+500 ng/mL ionomycin. Data were normalized to controls with (100%) w/o cmpds.
FIGS. 61A-61E show further results of cytokine release by hPBMC for Compound D136. Each compound was tested at 1.25, 2.5, 5, 10, 25 and 50 uM in duplicates.
Human PBMC were activated by 10 ng/mL PMA+500 ng/mL ionomycin. Data were normalized to controls with (100%) w/o cmpds.

[8] = Microsomal stability in human liver microsomes; type: in vitro ADME
[9] = PK in mice plasma; type: in vivo; details: for Fabs, %: PO 3.18 mg/kg vs IV 1.12 mg/kg; for Vd: plasma, iv
[10] = Stability in rat plasma; type: in vitro ADME
[11] = PK in rat plasma; type: in vivo; details: for Fabs, %: PO 7.53 mg/kg vs IV 1.13 mg/kg
[12] = pH solubility; type: physicochemical; details: for solubility: aqueous buffer, OD 250 nm
[13] = Microsomal stability in mouse liver microsomes; type: in vitro ADME
[14] = Table 39, PO plasma, 3.18 mg/kg
[15] = Table 41, IV plasma, 1.12 mg/kg
[16] = mouse, Table 39, PO plasma, 3.18 mg/kg
[17] = mouse, Table 41, IV plasma, 1.12 mg/kg
[18] = Table 36, PO plasma, 7.53 mg/kg
[19] = Table 38, IV plasma, 1.13 mg/kg
[20] = rat, Table 36, PO plasma, 7.53 mg/kg
[21] = rat, Table 38, IV plasma, 1.13 mg/kg

Sequence of hCyt P450 (Homo sapiens, UniProt P08684) (P08684 whole entry): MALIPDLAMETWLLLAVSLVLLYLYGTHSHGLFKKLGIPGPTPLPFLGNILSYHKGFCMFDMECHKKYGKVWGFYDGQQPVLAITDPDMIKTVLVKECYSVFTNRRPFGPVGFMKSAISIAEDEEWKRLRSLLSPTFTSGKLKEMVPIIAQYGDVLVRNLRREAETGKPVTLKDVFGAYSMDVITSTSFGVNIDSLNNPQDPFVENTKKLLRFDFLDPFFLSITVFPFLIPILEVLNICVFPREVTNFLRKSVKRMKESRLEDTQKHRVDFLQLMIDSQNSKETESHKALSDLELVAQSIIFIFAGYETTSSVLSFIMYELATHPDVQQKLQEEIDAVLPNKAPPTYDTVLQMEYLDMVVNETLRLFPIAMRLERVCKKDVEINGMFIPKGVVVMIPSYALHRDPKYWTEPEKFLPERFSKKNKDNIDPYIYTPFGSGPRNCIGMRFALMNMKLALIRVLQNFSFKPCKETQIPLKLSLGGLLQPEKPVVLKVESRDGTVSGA

For `COCCN[C@H]1CS(=O)(=O)C[C@@H]1S(=O)(=O)c1ccc(Cl)cc1` [Compound D136], the “inhibition of 7 major isoforms of hCyt P450” value [1] was “no inhibition”, the CYP inhibition conclusion ([2]; CYP 3A4-Midazolam) was “no inhi-” and the IC50 ([2]; CYP 3A4-Midazolam) was over 10 µM. The CYP inhibition conclusion ([2]; CYP 3A4-Testosterone) was “no inhi-”, the IC50 ([2]; CYP 3A4-Testosterone) was over 10 µM and the CYP inhibition conclusion [3] was “no inhi-”. For the same compound, the IC50 [3] was over 10 µM, the “stability in human plasma” value [4] was “Stable” and the “pH stability at pH2” value ([5]; pH2) was “extremely stable”. The “pH stability at pH7” value ([5]; pH7) was “extremely stable”, the “substrate for P-gp (MDR1)” value ([6]; Caco-2 asymmetry) was “not a substrate” and the efflux ratio ([6]; human, Caco-2, Mean Papp B-A / A-B, read-out: Asymmetry Index) was 1.5. The “IL1b release activation by hPBMC” value ([7]; at high release activation of others cytokines) was “No IL1b release activation”, the IL-1 inhibition ([7]; human PBMC) was “Selectively inhibits” and the IL-17α inhibition ([7]; human PBMC) was “Selectively inhibits”. For the same compound, the TNF-α inhibition ([7]; human PBMC) was “Selectively inhibits”, the “stability in presence of human liver microsomes” value [8] was “Extremely stable” and the K el [9, 14] was 1.2 h⁻¹. It also gave a T_½ [9, 14] of 34.8 min, an AUV last ([9]; Table 40, IV plasma, 1.12 mg/kg) of 124 and an AUV last ([9]; Table 40, PO plasma, 3.18 mg/kg) of 116. For the same compound, the “Fabs, %” value ([9]; Table 40, from AUCinf) was 33.2%, the “Fabs, %” value ([9]; Table 40, from AUV last) was 33.0% and the K el [9, 15] was 1.16 h⁻¹. For the same compound, the T_½ [9, 15] was 36 min, the Vd ([9]; mouse, 1.12 mg/kg, Table 41, IV plasma, 1.12 mg/kg, read-out: Vss) was 2.41 L/kg and the Vd ([9]; mouse, 1.12 mg/kg, Table 41, IV plasma, 1.12 mg/kg, read-out: Vz) was 7.74 L/kg. The AUC(0-inf) [9, 16] was 117 ng·h/mL, the AUC(0-t) [9, 16] was 116 ng·h/mL and the CL/F [9, 16] was 452 mL/min/kg. For the same compound, the Cmax [9, 16] was 89.6 ng/mL, the MRT inf [9, 16] was 64.8 min and the MRT last [9, 16] was 62.4 min. The Tmax [9, 16] was 15 min, the Vd/F ([9]; mouse, Table 39, PO plasma, 3.18 mg/kg, read-out: Vz/F) was 22.5 L/kg and the AUC(0-inf) ([9]; mouse, Table 40, IV plasma, 1.12 mg/kg) was 124 ng·h/mL. For the same compound, the AUC(0-t) [9, 17] was 124 ng·h/mL, the C0 [9, 17] was 770 ng/mL and the Cmax [9, 17] was 390 ng/mL. It also gave an MRT inf [9, 17] of 16.2 min, an MRT last [9, 17] of 15 min and a Tmax [9, 17] of 4.98 min. For the same compound, the clearance [9, 17] was 150 mL/min/kg, the “stability in rat plasma” value [10] was “Stable” and the K el [11, 18] was 0.75 h⁻¹. It also gave a T_½ [11, 18] of 55.8 min, an AUV last ([11]; Table 37, IV plasma, 1.13 mg/kg) of 239 and an AUV last ([11]; Table 37, PO plasma, 7.53 mg/kg) of 197. For the same compound, the “Fabs, %” value ([11]; Table 37, from AUCinf) was 12.9%, the “Fabs, %” value ([11]; Table 37, from AUV last) was 12.3% and the Cl/F [11, 19] was 80.23 mL/min/kg. It also gave a K el [11, 19] of 2.11 h⁻¹, a T_½ [11, 19] of 19.8 min and a bioavailability ([11]; plasma, po, PK in mouse and dog, species of the value not stated, read-out: orally bioavailable (absorbance)) of about 33%. For the same compound, the AUC(0-inf) [11, 20] was 208 ng·h/mL, the AUC(0-t) [11, 20] was 197 ng·h/mL and the CL/F [11, 20] was 866 mL/min/kg. For the same compound, the Cmax [11, 20] was 165 ng/mL, the MRT inf [11, 20] was 79.8 min and the MRT last [11, 20] was 67.8 min. The Tmax [11, 20] was 30 min, the Vd/F ([11]; rat, Table 36, PO plasma, 7.53 mg/kg, read-out: Vz/F) was 66.3 L/kg and the AUC(0-inf) ([11]; rat, Table 37, IV plasma, 1.13 mg/kg) was 242 ng·h/mL. For the same compound, the AUC(0-t) [11, 21] was 239 ng·h/mL, the Cmax [11, 21] was 524 ng/mL and the MRT inf [11, 21] was 22.2 min. The MRT last [11, 21] was 21 min, the Tmax [11, 21] was 4.98 min and the solubility ([12]; pH 2) was 660 µg/mL (≈ 1790 µM). For the same compound, the solubility ([12]; pH 4) was 220 µg/mL (≈ 598 µM), the solubility ([12]; pH 7) was 190 µg/mL (≈ 516 µM) and the “solubility at pH2” value ([12]; pH2) was “soluble”. For the same compound, the “solubility at pH4” value ([12]; pH4) was “soluble”, the “solubility at pH7.4” value ([12]; pH7.4) was “soluble” and the “stability in presence of mouse liver microsomes” value [13] was “Extremely stable”.
